From US20190029989A1, “BOWEL CARE USING IONTOPHORESIS” (priority 2016, published 2019)

How the values were obtained:
Assay type in all cases: in vivo, human
[1] = test system: Persons with SCI; test: Bowel evacuation score by video fluoroscopy after IV bolus in thirteen subjects (Example 3); conditions: IV bolus 2 mg neostigmine alone or with 0.4 mg glycopyrrolate
Method: (§1) Thirteen (13) persons with SCI (5 quadriplegics, 8 paraplegics) with a mean age of 46 years (range 25-69) and mean duration of injury of 16 years (range 1-31) were treated. None of the subjects had known heart disease and/or history of arrhythmias.
(§2) On separate days, subjects were given by IV bolus either (i) 2 mg neostigmine alone, (ii) a combination of 2 mg neostigmine and 0.4 mg glycopyrrolate, or (iii) normal saline. Subjects were blinded to the type of infusion being delivered. The effect of these infusions on bowel evacuation was assessed semi-quantitatively on a scale of 0 (no evacuation) to 4+(complete evacuation) using video fluoroscopy after rectal instillation of a barium-oatmeal paste having a consistency similar to that of stool. Blood pressure, heart rate and other vital signs were monitored in each subject. In addition, airway resistances were determined in each subject using the forced oscillation technique (as described, for example, in Goldman, Pulm. Pharmacol. Ther., 14(5):341-350, 2001). Total airway resistance was determined using 5 Hz forced oscillations, and central airway resistance was determined using 20 Hz forced oscillations.
This response received a 0 (zero) bowel evacuation score. FIGS. 1B-1E show progressively increasing bowel evacuation responses in different subjects. The responses in FIGS. 1B-1E correspond to bowel evacuation scores of 1+, 2+, 3+, and 4+, respectively.

[2] = test system: Persons with SCI; test: Heart rate and blood pressure monitoring after IV bolus (Example 3); conditions: IV bolus 2 mg neostigmine alone or with 0.4 mg glycopyrrolate
Method: as §1, §2

[3] = test system: Persons with SCI; test: Airway resistance by forced oscillation technique after IV bolus (Example 3); conditions: IV bolus 2 mg neostigmine
Method: as §1, §2

`CN(C)C(=O)Oc1cccc([N+](C)(C)C)c1` [neostigmine] was tested, and the “subjects with prompt and complete evacuation” value [1] was 57%, the “time of evacuation post infusion (mean)” value [1] was 11 min and the “mean bowel evacuation score” value ([1]; scale 0 (no evacuation) to 4+ (complete evacuation), thirteen subjects) was “about 2.29”. For the same molecule, the “change in blood pressure” value [2] was “No change”, the “mean lowest heart rate measured” value ([2]; p=0.02) was “about 49 BMP” and the “total airway resistance, increase over baseline” value ([3]; 5 Hz forced oscillations) was “approximately 25.5%”. The “central airway resistance, increase over baseline” value ([3]; 20 Hz forced oscillations) was “approximately 18.4%”.
